We go through 5 compounds from patent US20080166766A1, “Genetic incorporation of unnatural amino acids into proteins in mammalian cells” (The Scripps Research Institute, priority 2006, published 2008).

Series [1] relates to position 37 of GFP. Briefly: Fidelity of unnatural amino acid incorporation by mass spectrometry (nano-RP LC/MS/MS, ESI TOF-MS). As to conditions: for wild type peptide signals in tandem MS of mutant GFP sample: nano-RP LC/MS/MS of tryptic fragments, mutant GFP from T-REx CHO cells. The source says: To further characterize GFP-pMpa, the mutant protein was expressed in T-REx™ CHO cells transiently transfected with both pSWAN-pMpaRS and pSWAN-GFP37TAG. The protein was purified using an anti-myc antibody agarose column and then separated by SDS-PAGE. The GFP-pMpa band from the SDS-PAGE gel was digested with trypsin and analyzed by nanoscale reversed-phase liquid chromatography/mass spectrometry/mass spectrometry (nano-RP LC/MS/MS). In parallel, wild type GFP was purified from cells transfected with pcDNA4-GFP and subjected to the same analysis.
Proteolysis of affinity purified proteins (performed for wild-type and pBpa samples) was carried out by overnight incubation of proteins at 37° C. with sequencing-grade modified trypsin (Promega) using a substrate/enzyme ratio of 10:1 (wt/wt) based on the estimated protein concentration in 100 mM triethylammonium bicarbonate buffer (pH 8.5). In-gel digestions (performed for pMpa, pAzpa, pApa, and pPpa samples) were performed according to a modified EMBL procedure (see the website for EMBL, Heidelberg, Germany, Bioanalytical Research Group). Briefly, gel slices were excised to approximately 1 mm×1 mm cubes, washed for 5 minutes with water, 15 minutes with acetonitrile, and dried in a vacuum centrifuge before being rehydrated at 0° C. for 30 minutes with 12.5 ng/μl of sequencing-grade modified trypsin in 50 mM triethylammonium bicarbonate buffer (pH 8.5). Excess buffer was removed and 20 μl of 50 mM triethylammonium bicarbonate buffer (pH 8.5) was added to the gel slices before incubating at 37° C. overnight. Peptides were extracted from the gel slices as described in the protocol.
Nano-RP LC/MS/MS was performed with an HPLC pump, autosampler (Agilent Technologies, Palo Alto, Calif.), and an LTQ Orbitrap hybrid mass spectrometer (ThermoElectron, San Jose, Calif.). Tryptic digests were loaded with a pressure bomb onto a 75 μm i.d. precolumn packed with 4 cm of 5-μm Monitor C18 particles (Column Engineering, Ontario, Calif.) at a flow rate of approximately 2 μl/min. The precolumn was then connected to the HPLC pump and after several minutes of washing with solvent A the analytical column with integrated emitter tip (360 μm O.D.×75 μm i.d; 10 cm of 5 μM C18, ˜5-μm tip) was connected in series. The chromatographic profile was from 100% solvent A (0.1% aqueous acetic acid) to 50% solvent B (0.1% acetic acid in acetonitrile) in 40 min; the flow rate through the analytical column was ca. 100 nl/min.
For data-dependent experiments, the mass spectrometer was programmed to first record a high-resolution Orbitrap scan then a full-scan ion trap spectrum (m/z 500-2,000). This was followed by 10 data-dependent MS/MS scans (relative collision energy=35%; 3-Da isolation window) triggered of the ion-trap scan and finally two targeted MS/MS scans. The first targeted MS/MS scan was set to isolate and fragment the doubly charged precursor ion of the predicted unnatural amino acid modified peptide
at m/z 752.3. The raw data were searched against the MSDB database using MASCOT (Matrixscience, London, UK) for protein identification and to find the scans containing the target peptides with the unnatural amino acids as variable modification. To estimate fidelity at Y*37 of GFP-pMpa, single ion chromatograms (doubly charged precursor ions at m/z 752.3 for the wt and 759.3 for pMpa) and selected ion chromatograms (y9, y11, and y12) were integrated using the Xcalibur software package (ThermoElectron, San Jose, Calif.).
Intact protein mass spectra were acquired on an automated LC/MS system (Waters, Milford, Mass.) consisting of a capillary LC with auto-sampler and a QTOF2 mass spectrometer. GFP-pMpa (0.1 mg/ml) was loaded onto a reversed-phase protein Captrap (Michrom Bioresources, Auburn, Calif.) for desalting with 0.1% acetic acid in water and eluted with 80% acetonitrile/0.1% acetic acid at 5 μl/min into the ESI source of the mass spectrometer. […]

Series [2] deals with T-REx™ CHO cells. Briefly: Yield of purified mutant GFP containing unnatural amino acid (pSWAN two-plasmid system). In kind it is cell-based, Chinese hamster. As to conditions: pMpa 10 mM, pApa 10 mM, pBpa 1 mM, pAzpa 5 mM, pPpa 1 mM in media, anti-myc column purified. The source says:
The pMpaRS gene was inserted directly after the non-regulated CMV promoter for efficient and continuous expression of pMpaRS. Another plasmid (pSWAN-GFP37TAG in FIG. 4B) containing both three tandem repeats of the BstRNACUA^Tyr gene and the GFP37TAG gene was also constructed. The gene encoding GFP37TAG was inserted after a Tet-regulated CMV promoter to minimize potential read-through of the nonsense amber codon caused by endogenous amber suppression in mammalian cells. These two plasmids were then assayed for their suppression efficiency. Because both plasmids contain three tandem repeats of the BstRNACUA^Tyr gene, varying the ratio of the two plasmids to increase the suppression level is not expected to change the total amount of the BstRNACUA^Tyr gene transfected into cells. Under optimized transfection conditions (0.5 μg of pSWAN-pMpaRS and 2.5 μg pSWAN-GFP37TAG per 2×10^6 cells), the suppression level is roughly two-fold higher than that using the three plasmids pUC18-3BstRNACUA^Tyr, pcDNA4-pMpaRS, and pcDNA4-GFP37TAG (the suppression level was determined by the number of fluorescent cells). Cells were grown for 1-2 days after induction and kept viable before harvesting. The yield of mutant GFP containing pMpa (GFP-pMpa) was also quantified. In the presence of 10 mM pMpa in the growth media, 1 μg of mutant GFP can be obtained from 2×10^7 adhesive T-REx™ CHO cells.
Transient transfection of T-REx™ CHO and 293 cells with the pSWAN-EcTyrRS variants and pSWAN-GFP37TAG (0.5 μg of pSWAN-EcTyrRS variant and 2.5 μg of pSWAN-GFP37TAG per 2×10^6 cells) all afforded roughly two-fold higher suppression levels than for the three plasmids pUC18-3BstRNACUA^Tyr, pcDNA4-EcTyrRS variant, and pcDNA4-GFP37TAG (with the exception of the pIpa specific variant). Mutant GFPs containing pApa, pBpa, pAzpa or pPpa were also expressed in T-REx™ CHO cells transfected with the pSWAN-EcTyrRS variants and pSWAN-GFP37TAG and grown in media containing the corresponding unnatural amino acid (pApa, 10 mM; pBpa, 1 mM; pAzpa, 5 mM; or pPpa, 1 mM) for 1-2 days, and purified using an anti-myc antibody column. The yields of the mutant proteins containing pApa and pAzpa were close to that for pMpa (˜1 μg per 2×10^7 cells), and the yields of mutant proteins containing pBpa and pPpa were somewhat lower (˜0.7 μg per 2×10^7 cells). Because the expression levels of EcTyrRS variants in T-REx™ CHO cells are similar, the lower yield of the mutant proteins containing pBpa and pPpa may be due to the low concentrations of unnatural amino acids in the media.
pSWAN-EcTyrRS variants and pSWAN-GFP37TAG were used to express mutant GFPs containing unnatural amino acids. T-REx™ CHO cells (Invitrogen™) were grown in 75 cm^2 tissue culture flasks (BD Biosciences) to 80-90% confluency and transfected with 2 μg of pSWAN-EcTyrRS and 10 μg pSWAN-GFP37TAG using […] FuGENE® 6. After overnight incubation, the media were changed to the fresh media containing the unnatural amino acid (pMpa, 10 mM; pApa, 10 mM; pBpa, 1 mM; pAzpa, 5 mM; and pPpa, 1 mM) and 1 μg/ml tetracycline. Cells were then grown for 1-2 days at 37° C. before harvesting, and then lysed with RIPA lysis buffer. The supernatant from the cell lysate was dialyzed against and equilibrated with PBS buffer before loading onto an anti-myc antibody agarose column (Sigma). The column was washed with 15 column volumes of PBS buffer and then eluted with 0.1 M ammonium hydroxide. The purified proteins were neutralized with 0.1 M acetic acid and analyzed by SDS-PAGE. […]

Series [3] relates to Invitrogen™ T-REx™ CHO cells. Description: Amber suppression of GFP37TAG: full-length GFP expression by Western blot in T-REx CHO cells. As to conditions: BstRNACUA^Tyr + EcTyrRS variant, unnatural amino acid in media (plpa 8 mM), 24 hours. In kind it is cell-based, Chinese hamster. The procedure: (§1) The ability of the six EcTyrRS variants together with BstRNACUA^Tyr to suppress the amber codon in GFP37TAG was then tested in the presence and absence of unnatural amino acids in the growth media. Transient transfection of cells with plasmids was carried out as described for wild type EcTyrRS. Six hours after transfection, the media were replaced by the fresh media containing 1 μg/ml tetracycline and supplemented with the corresponding unnatural amino acid (pMpa, 10 mM; pApa, 10 mM; pBpa, 1 mM; plpa, 8 mM; pAzpa, 5 mM; or pPpa, 1 mM). Cells were then grown 24 hours for T-REx™ CHO cell lines and 48 hours for T-REx™ 293 cell lines before harvesting. In both T-REx™ CHO and 293 cells, the expression of full length GFP37TAG was dependent upon the presence of unnatural amino acids in the growth media as indicated in FIG. 2 and FIG. 3. […]
(§2) For Western blot analysis, harvested cells were lysed in RIPA buffer (Upstate Biotechnology/Millipore) with a 1:100 dilution of protease inhibitor cocktail (Sigma). […] Chemiluminescence was then detected with PIERCE ECL Western Blotting substrate. For T-REx™ 293 cells, the membranes were probed with anti-His-HRP (Invitrogen™; 1:5000 dilution) and then detected with PIERCE ECL Western Blotting substrate.
(In general: In western blotting, separated proteins are transferred to a membrane and probed.)

The test system of series [4] is T-REx™ 293 cells. Briefly: Cellular toxicity of unnatural amino acid in growth media. The series is classed as cell-based. To be noted: 8 mM in growth media.
Series [5] has as its system Invitrogen™ T-REx™ 293 cells. Description: Amber suppression of GFP37TAG: full-length GFP expression by Western blot in T-REx 293 cells. In kind it is cell-based, human. As to conditions: BstRNACUA^Tyr + EcTyrRS variant, unnatural amino acid in media (plpa 8 mM), 48 hours. As for the experimental part:
as §1, §2

As for `CC(=O)c1ccc(C[C@H](N)C(=O)O)cc1` [pApa, p-acetylphenylalanine], the “wild type peptide signals in tandem MS of mutant GFP sample” value in series [1] is recorded as “No wild type signals could be detected”. Further, the “yield of mutant GFP containing the unnatural amino acid” value (“yield” below) in series [2] is reported as around 1 μg per 2×10^7 cells.
Taken in the same sequence, the figures for `N[C@@H](Cc1ccc(C(=O)c2ccccc2)cc1)C(=O)O` [pBpa, p-benzoylphenylalanine] were “trace amount of the wild type peptide” and around 0.7 μg per 2×10^7 cells.
In the case of `COc1ccc(C[C@H](N)C(=O)O)cc1` [pMpa, p-methoxyphenylalanine], in series [1] (GFP-pMpa from T-REx CHO cells), the “purity estimate from the three most abundant fragment ions (y9, y11, y12) in tandem MS” value is reported as 99.93%. The “fidelity for incorporation (integration of single ion chromatograms of precursor ions)” value in series [1] (GFP-pMpa from T-REx CHO cells, tryptic peptide […]*GK) is reported as above 99.9%. Further, the “wild type GFP signals in intact protein ESI TOF-MS” value in series [1] (anti-myc purified GFP-pMpa, charge-state deconvoluted spectrum) is listed as “No wild type GFP signals”. For the same compound, the “yield” value in series [2] is listed as 1 μg per 2×10^7 cells.
In the case of `C#CCOc1ccc(C[C@H](N)C(=O)O)cc1` [pPpa, p-propargyloxyphenylalanine], the “wild type peptide signals in tandem MS of mutant GFP sample” value in series [1] is reported as “No wild type signals could be detected”. The “yield” value in series [2] is given as around 0.7 μg per 2×10^7 cells.
With `N[C@@H](Cc1ccc(I)cc1)C(=O)O` [plpa, p-iodophenylalanine], the “expression of full length GFP37TAG” value in series [3] is listed as “low expression level”; in series [5] it was “no GFP expression”. For the same compound, the “time until cells die (cellular toxicity)” value in series [4] was determined as 6 h.
